According to US20150197550A1 (UNIVERSITY OF ULSTER, priority 2012, published 2015):
Read-outs that look alike come from different tables or passages of the source. Numbered stars: 1 amine (or outer) side, 2 acyl side, 3 side chain; on linkers, the order of the positions; unused ones are H or OH. Square brackets hold non-standard residues; d marks the D form. Side chains are listed from the residue outwards. Peptide text beside a SMILES is read from it. * marks the point of attachment. γGlu = O=C(O)[C@H](CCC(=O)[*:2])N[*:1]; Palmitoyl = CCCCCCCCCCCCCCCC(=O)*; Abu = CC[C@H](N)C(=O)O; Aib = CC(C)(N)C(=O)O

Assay: Stability on incubation with mouse plasma for 8 h (RP-HPLC peak height)
Format: in vitro ADME
Method: The samples were then separated on RP-HPLC and the peak height compared to the value at time=0 hours.

| Structure (SMILES) | metabolised at 8 h (mouse plasma, 8 h, peak height vs time = 0 h, read-out: Percentage of degradation after 8h) [%] | metabolised at 8 h (mouse, plasma) [%] |
| --- | --- | --- |
| CC[C@H](C)[C@H](NC(=O)[C@H](Cc1ccccc1)NC(=O)[C@@H](NC(=O)CNC(=O)[C@H](CCC(=O)O)NC(=O)[C@@H](C)NC(=O)[C@@H](N)Cc1c[nH]cn1)[C@@H](C)O)C(=O)N[C@@H](CO)C(=O)N[C@@H](CC(=O)O)C(=O)N[C@@H](Cc1ccc(O)cc1)C(=O)N[C@@H](CO)C(=O)N[C@@H](CCCCN)C(=O)N[C@@H](Cc1ccc(O)cc1)C(=O)N[C@@H](CCSC)C(=O)N[C@@H](CC(=O)O)C(=O)N[C@@H](CC(N)=O)C(=O)N[C@@H](CCCNC(=N)N)C(=O)N[C@@H](CCCNC(=N)N)C(=O)N[C@@H](C)C(=O)N[C@@H](CCCCN)C(=O)N[C@@H](CC(=O)O)C(=O)N[C@@H](Cc1ccccc1)C(=O)N[C@H](C(=O)N[C@@H](CCC(N)=O)C(=O)N[C@@H](Cc1c[nH]c2ccccc12)C(=O)N[C@@H](CC(C)C)C(=O)N[C@@H](CCSC)C(=O)N[C@@H](CC(N)=O)C(=O)N[C@H](C(=O)O)[C@@H](C)O)C(C)C [(D-A^2 I^7) dogfish glucagon, (D-A^2I^7) dogfish glucagon] (H-H[dA]EGTFISDYSKYMDNRRAKDFVQWLMNT-OH; N-terminus and C-terminus assumed) | 33 | – |
| CSCC[C@H](NC(=O)[C@H](Cc1ccc(O)cc1)NC(=O)[C@H](CCCCN)NC(=O)[C@H](CO)NC(=O)[C@H](Cc1ccc(O)cc1)NC(=O)[C@H](CC(=O)O)NC(=O)[C@H](CO)NC(=O)[C@@H](NC(=O)[C@H](Cc1ccccc1)NC(=O)[C@@H](NC(=O)CNC(=O)[C@H](CCC(=O)O)NC(=O)[C@H](CO)NC(=O)[C@@H](N)Cc1c[nH]cn1)[C@@H](C)O)[C@@H](C)O)C(=O)N[C@@H](CC(=O)O)C(=O)N[C@@H](CC(N)=O)C(=O)N[C@@H](CCCNC(=N)N)C(=O)N[C@@H](CCCNC(=N)N)C(=O)N[C@@H](C)C(=O)N[C@@H](CCCCN)C(=O)N[C@@H](CC(=O)O)C(=O)N[C@@H](Cc1ccccc1)C(=O)N[C@H](C(=O)N[C@@H](CCC(N)=O)C(=O)N[C@@H](Cc1c[nH]c2ccccc12)C(=O)N[C@@H](CC(C)C)C(=O)N[C@@H](CCSC)C(=O)N[C@@H](CC(N)=O)C(=O)N[C@H](C(=O)O)[C@@H](C)O)C(C)C [dogfish glucagon, Dogfish glucagon (1-29)] (H-HSEGTFTSDYSKYMDNRRAKDFVQWLMNT-OH; N-terminus and C-terminus assumed) | – | 38.8 |
| CSCC[C@H](NC(=O)[C@H](CC(C)C)NC(=O)[C@H](Cc1c[nH]c2ccccc12)NC(=O)[C@H](CCC(N)=O)NC(=O)[C@@H](NC(=O)[C@H](Cc1ccccc1)NC(=O)[C@H](CC(=O)O)NC(=O)[C@H](CCCCN)NC(=O)[C@H](C)NC(=O)[C@H](CCCNC(=N)N)NC(=O)[C@H](CCCNC(=N)N)NC(=O)[C@H](CC(N)=O)NC(=O)[C@H](CC(=O)O)NC(=O)[C@H](CCSC)NC(=O)[C@@H](Cc1ccc(O)cc1)NC(=O)[C@H](CCCCN)NC(=O)[C@H](CO)NC(=O)[C@H](Cc1ccc(O)cc1)NC(=O)[C@H](CC(=O)O)NC(=O)[C@H](CO)NC(=O)[C@@H](NC(=O)[C@H](Cc1ccccc1)NC(=O)[C@@H](NC(=O)CNC(=O)[C@H](CCC(=O)O)NC(=O)[C@@H](C)NC(=O)[C@@H](N)Cc1c[nH]cn1)[C@@H](C)O)[C@@H](C)O)C(C)C)C(=O)N[C@@H](CC(N)=O)C(=O)N[C@H](C(=O)O)[C@@H](C)O [(D-A^2 D-Y^13) dogfish glucagon, (D-A^2D-Y^13) dogfish glucagon] (H-H[dA]EGTFTSDYSK[dY]MDNRRAKDFVQWLMNT-OH; N-terminus and C-terminus assumed) | – | 26.5 |
| CSCC[C@H](NC(=O)[C@H](Cc1ccc(O)cc1)NC(=O)[C@H](CCCCN)NC(=O)[C@H](CO)NC(=O)[C@H](Cc1ccc(O)cc1)NC(=O)[C@H](CC(=O)O)NC(=O)[C@H](CO)NC(=O)[C@@H](NC(=O)[C@H](Cc1ccccc1)NC(=O)[C@@H](NC(=O)CNC(=O)[C@H](CCC(=O)O)NC(=O)[C@@H](C)NC(=O)[C@@H](N)Cc1c[nH]cn1)[C@@H](C)O)[C@@H](C)O)C(=O)N[C@@H](CC(=O)O)C(=O)N[C@@H](CC(N)=O)C(=O)N[C@@H](CCCNC(=N)N)C(=O)N[C@@H](CCCNC(=N)N)C(=O)N[C@@H](C)C(=O)N[C@@H](CCCCN)C(=O)N[C@@H](CC(=O)O)C(=O)N[C@@H](Cc1ccccc1)C(=O)N[C@H](C(=O)N[C@@H](CCC(N)=O)C(=O)N[C@@H](Cc1c[nH]c2ccccc12)C(=O)N[C@@H](CC(C)C)C(=O)N[C@@H](CCSC)C(=O)N[C@@H](CC(N)=O)C(=O)N[C@H](C(=O)O)[C@@H](C)O)C(C)C [(D-Ala^2) dogfish glucagon, (D-A^2) dogfish glucagon] (H-H[dA]EGTFTSDYSKYMDNRRAKDFVQWLMNT-OH; N-terminus and C-terminus assumed) | – | 40.1 |
| CC[C@H](C)[C@H](NC(=O)[C@H](CO)NC(=O)[C@H](Cc1ccc(O)cc1)NC(=O)[C@H](CC(=O)O)NC(=O)[C@H](CO)NC(=O)[C@@H](NC(=O)[C@H](Cc1ccccc1)NC(=O)[C@@H](NC(=O)CNC(=O)[C@H](CCC(=O)O)NC(=O)[C@@H](C)NC(=O)[C@@H](N)Cc1c[nH]cn1)[C@@H](C)O)[C@@H](C)O)C(=O)N[C@@H](Cc1ccc(O)cc1)C(=O)N[C@@H](CCSC)C(=O)N[C@@H](CC(=O)O)C(=O)N[C@@H](CC(N)=O)C(=O)N[C@@H](CCCNC(=N)N)C(=O)N[C@@H](CCCNC(=N)N)C(=O)N[C@@H](C)C(=O)N[C@@H](CCCCN)C(=O)N[C@@H](CC(=O)O)C(=O)N[C@@H](Cc1ccccc1)C(=O)N[C@H](C(=O)N[C@@H](CCC(N)=O)C(=O)N[C@@H](Cc1c[nH]c2ccccc12)C(=O)N[C@@H](CC(C)C)C(=O)N[C@@H](CCSC)C(=O)N[C@@H](CC(N)=O)C(=O)N[C@H](C(=O)O)[C@@H](C)O)C(C)C [(D-A^2 I^12) dogfish glucagon, (D-A^2I^12) dogfish glucagon] (H-H[dA]EGTFTSDYSIYMDNRRAKDFVQWLMNT-OH; N-terminus and C-terminus assumed) | – | 20.7 |
| CC[C@H](NC(=O)[C@@H](N)Cc1c[nH]cn1)C(=O)N[C@@H](CCC(=O)O)C(=O)NCC(=O)N[C@H](C(=O)N[C@@H](Cc1ccccc1)C(=O)N[C@H](C(=O)N[C@@H](CO)C(=O)N[C@@H](CC(=O)O)C(=O)N[C@@H](Cc1ccc(O)cc1)C(=O)N[C@@H](CO)C(=O)N[C@@H](CCCCN)C(=O)N[C@@H](Cc1ccc(O)cc1)C(=O)N[C@@H](CCSC)C(=O)N[C@@H](CC(=O)O)C(=O)N[C@@H](CC(N)=O)C(=O)N[C@@H](CCCNC(=N)N)C(=O)N[C@@H](CCCNC(=N)N)C(=O)N[C@@H](C)C(=O)N[C@@H](CCCCN)C(=O)N[C@@H](CC(=O)O)C(=O)N[C@@H](Cc1ccccc1)C(=O)N[C@H](C(=O)N[C@@H](CCC(N)=O)C(=O)N[C@@H](Cc1c[nH]c2ccccc12)C(=O)N[C@@H](CC(C)C)C(=O)N[C@@H](CCSC)C(=O)N[C@@H](CC(N)=O)C(=O)N[C@H](C(=O)O)[C@@H](C)O)C(C)C)[C@@H](C)O)[C@@H](C)O [(Abu^2) dogfish glucagon] (H-H[Abu]EGTFTSDYSKYMDNRRAKDFVQWLMNT-OH; N-terminus and C-terminus assumed) | – | 58.4 |
| CSCC[C@H](NC(=O)[C@H](Cc1ccc(O)cc1)NC(=O)[C@H](CCCCN)NC(=O)[C@H](CO)NC(=O)[C@H](Cc1ccc(O)cc1)NC(=O)[C@H](CC(=O)O)NC(=O)[C@H](CO)NC(=O)[C@@H](NC(=O)[C@H](Cc1ccccc1)NC(=O)[C@@H](NC(=O)CNC(=O)[C@H](CCC(=O)O)NC(=O)C(C)(C)NC(=O)[C@@H](N)Cc1c[nH]cn1)[C@@H](C)O)[C@@H](C)O)C(=O)N[C@@H](CC(=O)O)C(=O)N[C@@H](CC(N)=O)C(=O)N[C@@H](CCCNC(=N)N)C(=O)N[C@@H](CCCNC(=N)N)C(=O)N[C@@H](C)C(=O)N[C@@H](CCCCN)C(=O)N[C@@H](CC(=O)O)C(=O)N[C@@H](Cc1ccccc1)C(=O)N[C@H](C(=O)N[C@@H](CCC(N)=O)C(=O)N[C@@H](Cc1c[nH]c2ccccc12)C(=O)N[C@@H](CC(C)C)C(=O)N[C@@H](CCSC)C(=O)N[C@@H](CC(N)=O)C(=O)N[C@H](C(=O)O)[C@@H](C)O)C(C)C [(Aib^2) dogfish glucagon] (H-H[Aib]EGTFTSDYSKYMDNRRAKDFVQWLMNT-OH; N-terminus and C-terminus assumed) | – | 47.4 |
| CCCCCCCCCCCCCCCC(=O)N[C@@H](CCC(=O)NCCCC[C@H](NC(=O)[C@@H](NC(=O)[C@H](CC(N)=O)NC(=O)[C@H](CCSC)NC(=O)[C@H](CC(C)C)NC(=O)[C@H](Cc1c[nH]c2ccccc12)NC(=O)[C@H](CCC(N)=O)NC(=O)[C@@H](NC(=O)[C@H](Cc1ccccc1)NC(=O)[C@H](CC(=O)O)NC(=O)[C@H](CCCCN)NC(=O)[C@H](C)NC(=O)[C@H](CCCNC(=N)N)NC(=O)[C@H](CCCNC(=N)N)NC(=O)[C@H](CC(N)=O)NC(=O)[C@H](CC(=O)O)NC(=O)[C@H](CCSC)NC(=O)[C@H](Cc1ccc(O)cc1)NC(=O)[C@H](CCCCN)NC(=O)[C@H](CO)NC(=O)[C@H](Cc1ccc(O)cc1)NC(=O)[C@H](CC(=O)O)NC(=O)[C@H](CO)NC(=O)[C@@H](NC(=O)[C@H](Cc1ccccc1)NC(=O)[C@@H](NC(=O)CNC(=O)[C@H](CCC(=O)O)NC(=O)[C@@H](C)NC(=O)[C@@H](N)Cc1c[nH]cn1)[C@@H](C)O)[C@@H](C)O)C(C)C)[C@@H](C)O)C(=O)O)C(=O)O [(D-A^2) dogfish glucagon Lys^30-γ-Glutamyl-PAL] (H-H[dA]EGTFTSDYSKYMDNRRAKDFVQWLMNTK([γGlu-Palmitoyl])-OH; N-terminus and C-terminus assumed) | – | 11.6 |
| CSCC[C@H](NC(=O)[C@H](C)NC(=O)[C@H](CCCCN)NC(=O)[C@H](CO)NC(=O)[C@H](Cc1ccc(O)cc1)NC(=O)[C@H](CC(=O)O)NC(=O)[C@H](CO)NC(=O)[C@@H](NC(=O)[C@H](Cc1ccccc1)NC(=O)[C@@H](NC(=O)CNC(=O)[C@H](CCC(=O)O)NC(=O)[C@@H](C)NC(=O)[C@@H](N)Cc1c[nH]cn1)[C@@H](C)O)[C@@H](C)O)C(=O)N[C@@H](CC(=O)O)C(=O)N[C@@H](CC(N)=O)C(=O)N[C@@H](CCCNC(=N)N)C(=O)N[C@@H](CCCNC(=N)N)C(=O)N[C@@H](C)C(=O)N[C@@H](CCCCN)C(=O)N[C@@H](CC(=O)O)C(=O)N[C@@H](Cc1ccccc1)C(=O)N[C@H](C(=O)N[C@@H](CCC(N)=O)C(=O)N[C@@H](Cc1c[nH]c2ccccc12)C(=O)N[C@@H](CC(C)C)C(=O)N[C@@H](CCSC)C(=O)N[C@@H](CC(N)=O)C(=O)N[C@H](C(=O)O)[C@@H](C)O)C(C)C [(D-A^2 A^13) dogfish glucagon, (D-A^2A^13) dogfish glucagon] (H-H[dA]EGTFTSDYSKAMDNRRAKDFVQWLMNT-OH; N-terminus and C-terminus assumed) | – | 33.9 |
